Tested on: H460 NSCLC
Experiment: H460 ectopic tumor model, TH-302 with carboplatin
Assay type: in vivo, nude mice
Experimental: Anti-tumor activity was evaluated by tumor growth inhibition (TGI) and tumor growth delay (TGD). Body weight change, gross and microscopic assessment of tissue changes, and hematologic assays served for toxicity assessment.
Testing in these models was conducted generally as follows. 1×10^6 H460 human non-small cell lung cancer or HT1080 human fibrosarcoma cells were implanted in the subcutaneous space of the right flank to obtain ectopic xenograft models. For the orthotopic pancreatic model, red-fluorescent protein (RFP) expressing MIA PaCa2 tumors were surgically implanted on the surface of the pancreas. The prostate metastatic model was created by the intraventricular injection of 3×10^6 luciferase-expressing PC-3 cells. […] API grade of TH-302 was used in all experiments while docetaxel, gemcitabine, doxorubicin and pemetrexed were purchased from commercial sources.
Inhibition of tumor growth after administration of TH-302 and carboplatin was greater than for either drug individually in an ectopic tumor model using H460 cells.

[1] = Carboplatin 20 mg/kg IV Q7Dx2, TH-302 100 mg/kg IP Q7Dx2, alone or combined
[2] = TH-302 150 mg/kg IP Q7Dx2, alone or + Carboplatin 20 mg/kg IV Q7Dx2

What does the source list for `Cn1c(COP(=O)(NCCBr)NCCBr)cnc1[N+](=O)[O-]` [TH-302, (2-bromoethyl)({[(2-bromoethyl)amino][(2-nitro-3-methylimidazol-4-yl)methoxy]phosphoryl})amine]?
Days to 500 mm^3 [1]: 13.5 days; T/C [1]: 56.1%; TGD500, Days (vs. vehicle) [1]: 4 days; TGI [1]: 43.9%; Tn (tumor volume on Day n) [1]: 706.0; Days to 500 mm^3 [2]: 14.5 days; T/C [2]: 50.3%; TGD500, Days (vs. vehicle) [2]: 5 days; TGI [2]: 49.7%; Tn (tumor volume on Day n) [2]: 641.6
